Literature values in PubChem BioAssay AID1259409 (Chemical Carcinogenesis Research Information System (CCRIS), 2018).
Values joined by “and” are separate entries in the source; they are usually repeats but may differ in a detail not shown here. Equal values may be shown once.

Test system: rodent chemically induced tumor inhibition, incidence and multiplicity
Assay: CCRIS tumor inhibitor studies
Details: Dose [Inhibitor]: 0

N#C[Se]Cc1ccc(C[Se]C#N)cc1
tumour outcome (control, treated, inhibition, significance) (Carcinogen: 4(Methylnitrosamino)-1-(3-pyridyl)-1-butanone (NNK) (62339-61-1), 10 ppm as Se in diet, wks 6 to 32, study duration 26 wk, Route [Inhibitor]: Oral, Species: Mouse, Strain/Sex: A/J / Female, Target Tissue: Type of Lesion: Lung: Tumor, Dose [Carcinogen]: 3 umol once a wk for 8 wk beginning at wk 6 (total of 24 umol/mouse), study duration 26 wk): 90%, 20% (78% reduction), p<0.001 and 96%, 68% (30% reduction), p<0.01 | tumour outcome (control, treated, inhibition, significance) (Carcinogen: 4-(METHYLNITROSAMINO)-1-(3-PYRIDYL)-1-BUTANONE, 64091-91-4, 0.0005% IN DIET FOR 17 WK BEGINNING 1 WK PRIOR TO CARCINOGEN DOSE (STUDY DURATION: 17 WK), Route [Inhibitor]: ORAL, Species: MOUSE, Strain/Sex: STRAIN-A/FEMALE, Target Tissue: Type of Lesion: LUNG: ADENOMA, Dose [Carcinogen]: 10 UMOL IN 0.1 ML SALINE ONCE, Promoter: NONE USED): 100%, 100%, 0%, not significant | tumour outcome (control, treated, inhibition, significance) (Carcinogen: 4-(METHYLNITROSAMINO)-1-(3-PYRIDYL)-1-BUTANONE, 64091-91-4, 5 PPM IN DIET BEGINNING 1 WK PRIOR TO CARCINOGEN TREATMENT AND CONTINUING FOR 16 WK POST CARCINOGEN TREATMENT (STUDY, Route [Inhibitor]: ORAL, Species: MOUSE, Strain/Sex: STRAIN-A/FEMALE, Target Tissue: Type of Lesion: LUNG: ADENOMA, Dose [Carcinogen]: 10 UMOL IN 0.1 ML SALINE, Promoter: NONE USED): 100%, 100%, 0%, not significant | tumour outcome (control, treated, inhibition, significance) (Carcinogen: 4-(METHYLNITROSAMINO)-1-(3-PYRIDYL)-1-BUTANONE, 64091-91-4, 7.5 PPM IN DIET FOR 3 WK BEGINNING 1 WK PRIOR TO CARCINOGEN DOSE (STUDY DURATION: 18 WK), Route [Inhibitor]: ORAL, Species: MOUSE, Strain/Sex: STRAIN-A/FEMALE, Target Tissue: Type of Lesion: LUNG: TUMOR, Dose [Carcinogen]: 10 UMOL IN 0.1 ML SALINE ONCE, Promoter: NONE USED): 100%, 80%, 20%, not significant | tumour outcome (control, treated, inhibition, significance) (Carcinogen: 4-(METHYLNITROSAMINO)-1-(3-PYRIDYL)-1-BUTANONE, 64091-91-4, 7.5 PPM IN DIET FOR 15 WK BEGINNING 1 WK POST CARCINOGEN DOSE (STUDY DURATION: 18 WK), Route [Inhibitor]: ORAL, Species: MOUSE, Strain/Sex: STRAIN-A/FEMALE, Target Tissue: Type of Lesion: LUNG: TUMOR, Dose [Carcinogen]: 10 UMOL IN 0.1 ML SALINE ONCE, Promoter: NONE USED): 100%, 96%, 4%, not significant | tumour outcome (control, treated, inhibition, significance) (Carcinogen: 4-(METHYLNITROSAMINO)-1-(3-PYRIDYL)-1-BUTANONE, 64091-91-4, 10 PPM IN DIET BEGINNING 1 WK PRIOR TO CARCINOGEN TREATMENT AND CONTINUING FOR 16 WK POST CARCINOGEN TREATMENT (STUDY, Route [Inhibitor]: ORAL, Species: MOUSE, Strain/Sex: STRAIN-A/FEMALE, Target Tissue: Type of Lesion: LUNG: ADENOMA, Dose [Carcinogen]: 10 UMOL IN 0.1 ML SALINE, Promoter: NONE USED): 100%, 90%, 10%, not significant | tumour outcome (control, treated, inhibition, significance) (Carcinogen: 4-(METHYLNITROSAMINO)-1-(3-PYRIDYL)-1-BUTANONE, 64091-91-4, 15 PPM IN DIET BEGINNING 1 WK PRIOR TO CARCINOGEN TREATMENT AND CONTINUING FOR 16 WK POST CARCINOGEN TREATMENT (STUDY, Route [Inhibitor]: ORAL, Species: MOUSE, Strain/Sex: STRAIN-A/FEMALE, Target Tissue: Type of Lesion: LUNG: ADENOMA, Dose [Carcinogen]: 10 UMOL IN 0.1 ML SALINE, Promoter: NONE USED): 100%, 85%, 15%, not significant | tumour outcome (control, treated, inhibition, significance) (Carcinogen: 4-(METHYLNITROSAMINO)-1-(3-PYRIDYL)-1-BUTANONE, 64091-91-4, 15 PPM IN DIET FOR 3 WK BEGINNING 2 WK PRIOR TO CARCINOGEN DOSE (STUDY DURATION: 18 WK), Route [Inhibitor]: ORAL, Species: MOUSE, Strain/Sex: STRAIN-A/FEMALE, Target Tissue: Type of Lesion: LUNG: TUMOR, Dose [Carcinogen]: 10 UMOL IN 0.1 ML SALINE ONCE, Promoter: NONE USED): 100%, 80%, 20%, not significant | tumour outcome (control, treated, inhibition, significance) (Carcinogen: 4-(METHYLNITROSAMINO)-1-(3-PYRIDYL)-1-BUTANONE, 64091-91-4, 15 PPM IN DIET FOR 15 WK BEGINNING 1 WK POST CARCINOGEN DOSE (STUDY DURATION: 18 WK), Route [Inhibitor]: ORAL, Species: MOUSE, Strain/Sex: STRAIN-A/FEMALE, Target Tissue: Type of Lesion: LUNG: TUMOR, Dose [Carcinogen]: 10 UMOL IN 0.1 ML SALINE ONCE, Promoter: NONE USED): 100%, 96%, 4%, not significant | tumour outcome (control, treated, inhibition, significance) (Carcinogen: 7,12-DIMETHYLBENZ[A]ANTHRACENE, 57-97-6, 2.5 PPM (AS SELENIUM) IN DIET BEGINNING 2 WK PRIOR TO CARCINOGEN DOSE AND CONTINUING FOR DURATION OF STUDY (STUDY DUR, Route [Inhibitor]: ORAL, Species: RAT, Strain/Sex: SPRAGUE-DAWLEY/FEMALE, Target Tissue: Type of Lesion: MAMMARY GLAND: ADENOCARCINOMA, Dose [Carcinogen]: 10 MG ONCE AT 55 D OF AGE, Promoter: NONE USED): 88%, 72%, 18%, not significant | tumour outcome (control, treated, inhibition, significance) (Carcinogen: 7,12-DIMETHYLBENZ[A]ANTHRACENE, 57-97-6, 5 PPM (AS SELENIUM) IN DIET BEGINNING 1 WK POST CARCINOGEN DOSE AND CONTINUING FOR 25 WK (STUDY DURATION: 25 WK), Route [Inhibitor]: ORAL, Species: RAT, Strain/Sex: SPRAGUE-DAWLEY/FEMALE, Target Tissue: Type of Lesion: MAMMARY GLAND: ADENOCARCINOMA, Dose [Carcinogen]: 10 MG ONCE AT 55 D OF AGE, Promoter: NONE USED): 22/25 (88%), 17/25 (68%), 23%, not significant
